The source of these data is US20070232698A1, “Slimming Skin External Preparation and Cosmetic Containing the Same” (priority 2004, published 2007).

The subject of series [1] is human skin tissue three dimensional model (TESTSKIN LSD-d). Kind of series: Comparison of percutaneous absorption properties: carnitine content in skin model. To be noted: 1% by mass solution, 50 μL on tissue surface for 2 hours; for carnitine content in the skin model, After 2-hour incubation: then 2-hour incubation at 37° C.; for carnitine content in the skin model, After 6-hour incubation: then 6-hour incubation at 37° C.; for carnitine content in the skin model, After 12-hour incubation: then 12-hour incubation at 37° C.
Protocol: The test substances were each dissolved in Dulbecco's PBS (−) to give a 1% by mass solution of the test substance. The test substance solutions were placed, each 50 μL, to a tissue surface of human skin tissue three dimensional model (TESTSKIN™ LSD-d, available from TOYOBO CO., LTD.), and were incubated at 37° C. in a 5% CO2 atmosphere for 2 hours. Thereafter the test substance solutions were aspirated out, and the skin models were further incubated at 37° C. in a 5% CO2 atmosphere for 2, 6 or 12 hours. The skin models were sampled after the lapse of each of the incubation times. The skin models sampled at the incubation times were washed with Dulbecco's PBS (−), and the tissue surfaces on which the test substances had been placed were punched out with a punch 6 mm in diameter. The skin models were then homogenated in a HEPES buffer solution (pH: 7.2), and were quantitatively analyzed using a high performance liquid chromatography to determine the carnitine content in the skin model.
From the analysis results, the carnitine contents in the skin models (unit: nmol/mg skin protein) were obtained for the test substances at each of the incubation times.

Series [2] concerns skin together with subcutaneous fat tissues. Kind of series: Subcutaneous fat breakdown test (rat abdominal skin with subcutaneous fat in Franz diffusion cell). To be noted: lower cell PBS (−), 37° C., average of three measurements, control (none) 20. On the procedure:
A male Wister rat, 10 weeks old, was shaved on the abdomen, and the skin was removed together with subcutaneous fat tissues and was placed in a Franz diffusion cell. An upper cell on the skin surface was filled with a buffer solution containing the Example 1 test substance, and a lower cell was filled with Dulbecco's PBS (−). The diffusion cell was held at 37° C. and was allowed to stand for 8 or 16 hours. After the lapse of each of the standing times, PBS (−) was withdrawn from the lower cell. The content of free glycerol resulting from the fat breakdown was measured with use of Glycerol Test E Wako. The results are averages of three measurements.
The free glycerol contents were measured in the same manner as in Example 3, except that the two carnitine and carnitine derivative 1) and 6) used in Example 4 were tested. The results are averages of three measurements.
The free glycerol contents were measured in the same manner as in Example 3, except that the three carnitine and carnitine derivatives 1), 7) and 8) used in Example 7 were tested. The results are averages of three measurements.

The test system of series [3] is Mouse 3T3 adipocytes. Kind of series: Measurement of fat metabolic activity for mouse 3T3 adipocytes (free glycerol in culture medium). It is filed as cell-based. To be noted: 250 μM test substance, medium recovered after 24 hours; control (none) = 100. The procedure: The five carnitine and carnitine derivatives 1) to 5) used in Example 1 were tested. The fat metabolic activity was measured and compared by quantitative determination of glycerol in the culture medium based on the fact that metabolism of the fat accumulated in adipocytes releases glycerol and free fatty acid to the culture medium.
Mouse 3T3 cells as the preadipocytes were disseminated on a 10 cm-diameter dish such that 1×10^4 cells were on the dish. […] Thereafter, the culture medium was replaced with a 10% FCS-containing DMEM culture medium that contained […] of dexamethasone, 0.5 mM of isobutylmethylxanthine and 10 μg/ml of insulin, and incubation was continued for another 2 days. Subsequently, the culture medium was replaced again with a 10% FCS-containing ordinary DMEM culture medium, and incubation was performed for another week, resulting in differentiation of the preadipocytes into adipocytes. Next, the culture medium was replaced with an ordinary culture medium that contained 250 μM of the carnitine or carnitine derivative of the five substances 1) to 5) used in Example 1, and the culture medium was recovered after 24 hours. The cells were washed with Dulbecco's PBS (−) and were recovered. Cells incubated in the absence of the test substances were used as the control. The glycerol content in the culture medium was quantitatively determined using Glycerol Test E Wako (Wako Pure Chemical Industries, Ltd.).
The fat metabolic activity for mouse 3T3 adipocytes was determined based on the free glycerol content in the same manner as in Example 2, except that the two carnitine and carnitine derivative 1) and 6) used in Example 4 were tested.
The fat metabolic activity for mouse 3T3 adipocytes was determined based on the free glycerol content in the same manner as in Example 2, except that the three carnitine and carnitine derivatives 1), 7) and 8) used in Example 7 were tested.

The subject of series [4] is Mouse 3T3-F442A cells. Kind of series: Triglyceride accumulation in adipocytes with base acylcarnitine plus test substance (oil red staining). Particulars: 4 days, control = base alone; for accumulated triglyceride amount relative to the control (100%), Base Hexadecanoyl-L-carnitine hydrochloride: base hexadecanoyl-L-carnitine hydrochloride plus 50 μM test substance (ginkgo biloba extract 30 μg/ml; garcinia extract as hydroxycitric acid); for accumulated triglyceride amount relative to the control (100%), Base Octadecanoyl-L-carnitine hydrochloride: base octadecanoyl-L-carnitine hydrochloride plus 50 μM test substance (ginkgo biloba extract 30 μg/ml; garcinia extract as hydroxycitric acid). It is filed as cell-based. On the procedure:
The incubation was continued for another 4 days. The control was incubated using a culture medium that contained the base alone (no test substances). After the 4-days incubation, the cells were washed three times with Dulbecco's PBS (−). The triglyceride amount accumulated in the cells was quantitatively determined by oil red staining. […] Mouse 3T3-F442A cells were incubated as described in Example 10, and differentiation into adipocytes was observed. […] The incubation was continued for another 4 days. The control was incubated using a culture medium that contained the base alone (no test substances). After the 4-days incubation, the cells were washed three times with Dulbecco's PBS (−). The triglyceride amount accumulated in the cells was quantitatively determined by oil red staining.

Structures can show the parent of a compound that is named as a salt.

For `C[N+](C)(C)C[C@H](O)CC(=O)[O-]` [Test substance 1), L-Carnitine, reference compound], in series [1], the “carnitine content in the skin model, After 2-hour incubation” value is given as 12 nmol/mg skin protein; the “carnitine content in the skin model, After 6-hour incubation” value turned out to be 12 nmol/mg skin protein; the “carnitine content in the skin model, After 12-hour incubation” value is listed as 11 nmol/mg skin protein. In series [2], the “Free glycerol, After 8 hours” value is 120 µmol/mL and the “Free glycerol, After 16 hours” value came to 125 µmol/mL. For the same compound, the “Free glycerol content (% relative to the control)” value in series [3] is 120 % relative to the control.

Regarding `CCCCCCCCCCCCCCCC(=O)O` [Palmitic acid], in series [4], the “accumulated triglyceride amount relative to the control (100%), Base Hexadecanoyl-L-carnitine hydrochloride” value is recorded as 102% and the “accumulated triglyceride amount relative to the control (100%), Base Octadecanoyl-L-carnitine hydrochloride” value is recorded as 100%.

As to `CCCCCCCCCCCCCC(=O)O` [Myristic acid], in series [4], the “accumulated triglyceride amount relative to the control (100%), Base Hexadecanoyl-L-carnitine hydrochloride” value is given as 99% and the “accumulated triglyceride amount relative to the control (100%), Base Octadecanoyl-L-carnitine hydrochloride” value turned out to be 98%.

For `C[N+](C)(C)C[C@H](O)CC(=O)[O-].Cl` [L-carnitine hydrochloride], in series [4], the “accumulated triglyceride amount relative to the control (100%), Base Hexadecanoyl-L-carnitine hydrochloride” value amounted to 99% and the “accumulated triglyceride amount relative to the control (100%), Base Octadecanoyl-L-carnitine hydrochloride” value turned out to be 102%.

Turning to `OCC(O)CO` [Glycerol], in series [4], the “accumulated triglyceride amount relative to the control (100%), Base Hexadecanoyl-L-carnitine hydrochloride” value is given as 118% and the “accumulated triglyceride amount relative to the control (100%), Base Octadecanoyl-L-carnitine hydrochloride” value worked out at 113%.

Take `O=C1O[C@H]([C@@H](O)CO)C(O)=C1O[C@H]1O[C@H](CO)[C@@H](O)[C@H](O)[C@H]1O` [Ascorbic acid-2-glucoside]: in series [4], the “accumulated triglyceride amount relative to the control (100%), Base Hexadecanoyl-L-carnitine hydrochloride” value stood at 99% and the “accumulated triglyceride amount relative to the control (100%), Base Octadecanoyl-L-carnitine hydrochloride” value is recorded as 102%.

With `CCCCCCCCCCCCCCCCOC(=O)C[C@H](C[N+](C)(C)C)OC(=O)CCCCCCCCCCCCCCC.[Cl-]` [Test substance 8), Hexadecanoyl-L-carnitine hexadecyl ester hydrochloride], in series [1], the “carnitine content in the skin model, After 2-hour incubation” value was 2 nmol/mg skin protein; the “carnitine content in the skin model, After 6-hour incubation” value turned out to be 8 nmol/mg skin protein; the “carnitine content in the skin model, After 12-hour incubation” value amounted to 21 nmol/mg skin protein. For the same compound, in series [2], the “Free glycerol, After 8 hours” value amounted to 75 µmol/mL and the “Free glycerol, After 16 hours” value came out at 150 µmol/mL. For the same compound, the “Free glycerol content (% relative to the control)” value in series [3] is given as 148 % relative to the control.

In the case of `CCCCCCCCCCCCCCCC(=O)OC(CC(=O)O)(C(=O)O)C(O)C(=O)O` (centres unmarked) [Hydroxycitric acid-2-palmitate], in series [4], the “accumulated triglyceride amount relative to the control (100%), Base Hexadecanoyl-L-carnitine hydrochloride” value is 70% and the “accumulated triglyceride amount relative to the control (100%), Base Octadecanoyl-L-carnitine hydrochloride” value is recorded as 72%.

`CCCCCCCCCCCCCCCC(=O)OC[C@H](O)[C@H]1OC(=O)C(OP(=O)([O-])[O-])=C1[O-].[Na+].[Na+].[Na+]` [Ascorbic acid-2-phosphoric acid-6-palmitate sodium salt]: in series [4], the “accumulated triglyceride amount relative to the control (100%), Base Hexadecanoyl-L-carnitine hydrochloride” value is 96% and the “accumulated triglyceride amount relative to the control (100%), Base Octadecanoyl-L-carnitine hydrochloride” value amounted to 96%.

For the compound `Cn1c(=O)c2[nH]cnc2n(C)c1=O` [Theophylline], in series [4], the “accumulated triglyceride amount relative to the control (100%), Base Hexadecanoyl-L-carnitine hydrochloride” value is 62% and the “accumulated triglyceride amount relative to the control (100%), Base Octadecanoyl-L-carnitine hydrochloride” value is listed as 58%.

As to `CCCCCCCCCCCCCCCCCC(=O)O` [Stearic acid], in series [4], the “accumulated triglyceride amount relative to the control (100%), Base Hexadecanoyl-L-carnitine hydrochloride” value is given as 101% and the “accumulated triglyceride amount relative to the control (100%), Base Octadecanoyl-L-carnitine hydrochloride” value was determined as 99%.

Regarding Calcium hydroxycitrate, in series [4], the “accumulated triglyceride amount relative to the control (100%), Base Hexadecanoyl-L-carnitine hydrochloride” value is reported as 89% and the “accumulated triglyceride amount relative to the control (100%), Base Octadecanoyl-L-carnitine hydrochloride” value is 88%.

As to `Cc1ccc(N(CC2=NCCN2)c2cccc(O)c2)cc1` [Phentolamine hydrochloride], in series [4], the “accumulated triglyceride amount relative to the control (100%), Base Hexadecanoyl-L-carnitine hydrochloride” value worked out at 68% and the “accumulated triglyceride amount relative to the control (100%), Base Octadecanoyl-L-carnitine hydrochloride” value worked out at 65%.

On to `Cc1c(C)c2c(c(C)c1OC(=O)CN(C)C)CCC(C)(CCCC(C)CCCC(C)CCCC(C)C)O2.Cl` (racemic) [dl-α-Tocopherol-N,N-dimethylglycine ester hydrochloride], for which, in series [4], the “accumulated triglyceride amount relative to the control (100%), Base Hexadecanoyl-L-carnitine hydrochloride” value worked out at 98% and the “accumulated triglyceride amount relative to the control (100%), Base Octadecanoyl-L-carnitine hydrochloride” value worked out at 99%.

Regarding `CCCCCCCCCCCCCCCC(=O)O[C@H](CC(=O)OC)C[N+](C)(C)C.[Cl-]` [Test substance 7), Hexadecanoyl-L-carnitine methyl ester hydrochloride], in series [1], the “carnitine content in the skin model, After 2-hour incubation” value turned out to be 2 nmol/mg skin protein; the “carnitine content in the skin model, After 6-hour incubation” value stood at 9 nmol/mg skin protein; the “carnitine content in the skin model, After 12-hour incubation” value is 19 nmol/mg skin protein. Besides, in series [2], the “Free glycerol, After 8 hours” value was 68 µmol/mL and the “Free glycerol, After 16 hours” value was 145 µmol/mL. For the same compound, the “Free glycerol content (% relative to the control)” value in series [3] is on record as 143 % relative to the control.

Regarding `CC(C)Cn1c(=O)n(C)c(=O)c2[nH]cnc21` [3-Isobutyl-1-methylxanthine], in series [4], the “accumulated triglyceride amount relative to the control (100%), Base Hexadecanoyl-L-carnitine hydrochloride” value worked out at 50% and the “accumulated triglyceride amount relative to the control (100%), Base Octadecanoyl-L-carnitine hydrochloride” value was 57%.

On to `CC(C)NCC(O)c1ccc(O)c(O)c1` (centres unmarked) [Isoproterenol hydrochloride], for which, in series [4], the “accumulated triglyceride amount relative to the control (100%), Base Hexadecanoyl-L-carnitine hydrochloride” value came out at 60% and the “accumulated triglyceride amount relative to the control (100%), Base Octadecanoyl-L-carnitine hydrochloride” value is listed as 64%.

As for `CCCCCCCCCCCCCCCCOC(=O)C[C@@H](O)C[N+](C)(C)C.[Cl-]` [Test substance 6), L-Carnitine hexadecyl ester hydrochloride], in series [1], the “carnitine content in the skin model, After 2-hour incubation” value is 5 nmol/mg skin protein; the “carnitine content in the skin model, After 6-hour incubation” value is recorded as 11 nmol/mg skin protein; the “carnitine content in the skin model, After 12-hour incubation” value is 26 nmol/mg skin protein. Moreover, in series [2], the “Free glycerol, After 8 hours” value was 110 µmol/mL and the “Free glycerol, After 16 hours” value amounted to 116 µmol/mL. The “Free glycerol content (% relative to the control)” value in series [3] is given as 165 % relative to the control.

Turning to `O=C1O[C@H]([C@@H](O)CO)C(O)=C1OP(=O)([O-])[O-].[Mg+2]` [Ascorbic acid-2-phosphate magnesium salt], in series [4], the “accumulated triglyceride amount relative to the control (100%), Base Hexadecanoyl-L-carnitine hydrochloride” value is 98% and the “accumulated triglyceride amount relative to the control (100%), Base Octadecanoyl-L-carnitine hydrochloride” value is reported as 97%.

Turning to `Cc1c(C)c2c(c(C)c1OP(=O)([O-])[O-])CCC(C)(CCCC(C)CCCC(C)CCCC(C)C)O2.[Na+].[Na+]` (racemic) [dl-α-Tocopherol phosphate sodium salt], in series [4], the “accumulated triglyceride amount relative to the control (100%), Base Hexadecanoyl-L-carnitine hydrochloride” value was 100% and the “accumulated triglyceride amount relative to the control (100%), Base Octadecanoyl-L-carnitine hydrochloride” value was found to be 102%.
